Results taken from PMC10974622, “Hybrid Peptide-Alkoxyamine Drugs: A Strategy for the Development of a New Family of Antiplasmodial Drugs” (Molecules, 2024).
Read-outs that look alike come from different tables or passages of the source. *1 amine or outer side, *2 acyl side, *3 side chain or, on linkers, in order; H or OH if unused. Where a SMILES comes first, the peptide text is derived from it. [ ]: non-standard residue; d: D form. The star is where a group is joined. Suc = O=C(CCC(=O)[*:2])[*:1]; Boc = CC(C)(C)OC(=O)*; OBn = c1ccc(CO*)cc1

Tests used:
[1] = test system: P. falciparum strain F32-ART (artemisinin-resistant); experiment: microbe, parasite or virus in culture; type: cell-based, Plasmodium falciparum; conditions: for Selectivity Index CC50/IC50: cytotoxicity (Vero cells)/antiplasmodial activity (F32-ART) ratio
Source text: The antimalarial activity of peptide-alkoxyamine hybrids was first evaluated in the in vitro antiproliferative test (IC50) using the artemisinin-resistant strain F32-ART (Table 2, Table S1). The roles of the N-substitution of the alkoxyamine moiety (TEMPO- or DBNO-based, for example, A3L/A8L, line 1/line 10), of the configuration (L or D of the peptide, A3L/A3D, line 1/line 2), of the N-protection of the peptide (A3L/A4L or A5L, line 1/ lines 3 and 5) were examined. According to standard rules in the malaria field, only molecules having IC50 values below 1 μM were considered active.
The F32-ART (artemisinin-resistant) strain and the F32-TEM (artemisinin-sensitive strain) were cultured according to Trager and Jensen in RPMI 1640 medium (Fisher Scientific, Illkirch, France) supplemented with 5% human serum (Etablissement français du Sang, Toulouse, France) at 2% hematocrit with type O human blood (Etablissement français du Sang, Toulouse, France), 37 °C, and 5% CO2 in a humidified atmosphere.
(§1) IC50 values corresponding to 50% inhibition of P. falciparum growth were determined by SYBR Green assay, and the assessment of cytotoxicity was performed on Vero cells (cell line from the kidney of a normal adult African green monkey), as previously published. The selectivity index corresponded to the cytotoxicity/activity ratio.

Vero cells = conditions: cited from earlier work
in vitro = type: cell-based, African green monkey; conditions: Cytotoxicity CC50
Method: as §1

[2] = Kinetic analysis of alkoxyamine bond homolysis by EPR; type: physicochemical; conditions: Equation (2), A = 2.4 · 10^14 s^−1
Method: The kinetic homolysis for peptide-alkoxyamines reported in Table 1 was recorded in EPR using two solvents, tert-butylbenzene (t-BuPh) or an n-propanol:water (1:1, v:v) mixture. The growth of nitroxide was recorded in the presence of an alkyl radical scavenger, i.e., O2 here, to suppress the back reaction (kc in Scheme 4), as already reported.
Homolysis rate constants kd are given by Equation (1) ([nitroxide]∞ = [alkoxyamine]0 = 0.1 mM), and the subsequent activation energy values Ea are given by Equation (2), as follows:(1) lnnitroxide∞−nitroxidet/nitroxide∞=−kd·t (2) Ea=−RTlnkd/A

F32-ART parasites = experiment: Parasitemia monitoring and parasite morphology upon drug exposure, F32-ART ring-stage parasites; type: cell-based, Plasmodium falciparum; conditions: 48 h exposure
Method: The effect of hybrid compounds against Plasmodium parasites was assessed by the microscopic examination of parasite morphology upon drug exposure. For this purpose, parasites were synchronized at 0–4 h age by percoll-sorbitol treatment, 0–24 h age by sorbitol treatment, or at schizont stage by percoll treatment at the start of the experiment. Different treatment schedules were tested. In the case of multiple doses, parasite cultures were washed before each new drug addition.

[3] = test system: F32-ART parasites at the quiescent stage; experiment: Quiescent-stage Survival Assay (QSA); type: cell-based, Plasmodium falciparum; conditions: 700 nM DHA, compound at 7 µM
Method: In this assay, parasites were exposed to dihydroartemisinin (DHA) alone to induce quiescence, prior the addition of the drug to be tested for 48 h, and then the parasite recrudescence was monitored over a maximum of 4 weeks. Activity against quiescent parasites was evidenced by a delay in recrudescence time over 6 days between the conditions “DHA 6 h / DHA 48 h” and “DHA 6 h/(DHA + molecule) 48 h”. Atovaquone was used as a positive control, and its activity against quiescent parasites was here confirmed, as expected, by an extended delay of 11 days in recrudescence time (Figure 5). By contrast, no activity of A8L and A3L against quiescent parasites was evidenced in the QSA, with similar recrudescence time between the conditions “DHA 6 h/DHA 48 h” and “DHA 6 h/(DHA + molecule) 48 h”. […] To understand this phenomenon, we explored the parasite response during treatment with these hybrid compounds.
The QSA was performed according to Reyser et al.. Briefly, ART-resistant ring-stage parasites at 3% parasitemia were exposed for 6 h to 700 nM of DHA (dihydroartemisinin) to induce quiescence or were exposed to no drugs (control condition). After that, the compound to be tested was added in both conditions […]. At the end of the treatment, the drugs were washed off with RPMI-1640, and parasites were replaced in drug-free conditions. Blood smears were performed to follow parasitemia until the day the cultures reached their starting parasitemia, defined as the recrudescence day. If after 30 days no parasite recrudescence was observed, then the data were censored. Data analysis was performed using Kaplan–Meier survival curves. Statistical significance was ascertained by using a log-rank (Mantel-Cox) test using GraphPad Prism 7 software (San Diego, CA, USA).

[4] = Plasmodium falciparum, F32, read-out: Antiplasmodial Activity IC50, strain F32-ART, SYBR Green assay, mean ± SEM of 3 to 6 experiments
[5] = read-out: Antiplasmodial Activity IC50, strain F32-ART, SYBR Green assay, mean ± SEM of 3 to 6 experiments
[6] = strain F32-ART, SYBR Green assay, mean ± SEM of 3 to 6 experiments, read-out: Antiplasmodial Activity IC50

Structure (SMILES)	IC50 [1, 6] [µM]	CC50 (Vero cells) [µM]	CC50 (in vitro; African green monkey) [µM]	also measured
CC(ON1C(C)(C)CCCC1(C)C)c1ccccc1 (stereo not drawn) [compound 4, reference compound]	–	–	–	IC50 [1, 4]: > 10 µM
CC(ON1C(C)(C)CCCC1(C)C)c1ccc(NC(=O)[C@@H](Cc2ccccc2)NC(=O)[C@H](NC(=O)[C@H](N)Cc2ccccc2)C(C)C)cc1 (stereo partly drawn) [A5D]	–	–	–	Selectivity Index CC50/IC50 [1]: 1.0; IC50 [1, 5]: 2.25 ± 0.17 µM
CC(C)[C@H](NC(=O)[C@H](Cc1ccccc1)NC(=O)CCC(=O)OCc1ccccc1)C(=O)N[C@@H](Cc1ccccc1)C(=O)O [P12L]	> 10	> 50	–	–
CC(ON1C(C)(C)CCCC1(C)C)c1ccc(NC(=O)[C@@H](Cc2ccccc2)NC(=O)[C@H](NC(=O)[C@@H](Cc2ccccc2)NC(=O)OC(C)(C)C)C(C)C)cc1 (stereo partly drawn) [A3D]	–	–	> 50	IC50 [1, 4]: > 50 µM
CCc1ccc(NC(=O)[C@H](Cc2ccccc2)NC(=O)[C@@H](NC(=O)[C@@H](N)Cc2ccccc2)C(C)C)cc1 [P22L]	> 10	> 50	–	–
CC(ON(C(C)(C)C)C(C)(C)C)c1ccc(NC(=O)[C@H](Cc2ccccc2)NC(=O)OC(C)(C)C)cc1 (stereo partly drawn) [A9L]	–	–	–	activation energy Ea ([2]; in t-BuPh): 120.5 kJ/mol; activation energy Ea ([2]; in water/n-PrOH 1/1 v/v): 118.9 kJ/mol
CC(ON(C(C)(C)C)C(C)(C)C)c1ccc(NC(=O)[C@@H](Cc2ccccc2)NC(=O)OC(C)(C)C)cc1 (stereo partly drawn) [A9D]	–	–	–	activation energy Ea ([2]; in t-BuPh): 120.8 kJ/mol; activation energy Ea ([2]; in water/n-PrOH 1/1 v/v): 118.9 kJ/mol
CC(ON1C(C)(C)CCCC1(C)C)c1ccc(NC(=O)[C@H](Cc2ccccc2)NC(=O)[C@@H](NC(=O)[C@H](Cc2ccccc2)NC(=O)CCC(=O)OCc2ccccc2)C(C)C)cc1 (stereo partly drawn) [A6L]	–	> 50	–	IC50 [1, 4]: 7 µM; Selectivity Index CC50/IC50 [1]: >6.9; IC50 [1, 5]: 7.2 µM
CC(C)[C@@H](NC(=O)[C@@H](Cc1ccccc1)NC(=O)OC(C)(C)C)C(=O)N[C@H](Cc1ccccc1)C(=O)OCc1ccccc1 [P6D, Boc-D-Phe-D-Val-D-Phe–OBn] (Boc-[dF]-[dV]-[dF]-OBn)	> 50	–	3.2 ± 0.2	–
C[C@@H]1CC[C@H]2[C@@H](C)C(=O)O[C@@H]3O[C@@]4(C)CC[C@@H]1[C@]32OO4 [ART, Artemisinin, reference compound]	–	–	> 50	IC50 [1, 4]: 0.031 ± 0.006 µM; Selectivity Index CC50/IC50 [1]: >1500
CCc1ccc(NC(=O)[C@@H](Cc2ccccc2)NC(=O)[C@H](NC(=O)[C@H](N)Cc2ccccc2)C(C)C)cc1 [P22D]	–	–	–	CC50 (in vitro): 11 ± 1.6 µM
CC(C)[C@H](NC(=O)[C@@H](N)Cc1ccccc1)C(=O)N[C@@H](Cc1ccccc1)C(=O)O [P18L] (H-Phe-Val-Phe-OH)	> 5	> 25	–	–
CC(ON(C(C)(C)C)C(C)(C)C)c1ccc(NC(=O)[C@@H](Cc2ccccc2)NC(=O)[C@@H](NC(=O)[C@H](Cc2ccccc2)NC(=O)OC(C)(C)C)C(C)C)cc1 (stereo partly drawn) [A8DL]	–	–	> 50	activation energy Ea ([2]; in t-BuPh): 119.3 kJ/mol; activation energy Ea ([2]; in water/n-PrOH 1/1 v/v): 118.4 kJ/mol; IC50 [1, 4]: 0.87 ± 0.04 µM; Selectivity Index CC50/IC50 [1]: >57
CC(C)[C@H](NC(=O)[C@H](Cc1ccccc1)NC(=O)OC(C)(C)C)C(=O)N[C@@H](Cc1ccccc1)C(=O)OCc1ccccc1 [P6L] (Boc-Phe-Val-Phe-OBn)	> 50	–	> 50	–
CCc1ccc(NC(=O)[C@H](Cc2ccccc2)NC(=O)[C@@H](NC(=O)[C@H](Cc2ccccc2)NC(=O)CCC(=O)O)C(C)C)cc1 [P24L]	> 10	> 50	–	–
CC(C)[C@H](NC(=O)[C@H](Cc1ccccc1)NC(=O)OC(C)(C)C)C(=O)N[C@@H](Cc1ccccc1)C(=O)O [P7L, Boc-L-Phe-L-Val-L-Phe–OH] (Boc-Phe-Val-Phe-OH)	> 50	> 50	–	–
CC(ON(C(C)(C)C)C(C)(C)C)c1ccc(NC(=O)[C@@H](Cc2ccccc2)NC(=O)[C@H](NC(=O)[C@@H](Cc2ccccc2)NC(=O)OC(C)(C)C)C(C)C)cc1 (stereo partly drawn) [A8D]	–	–	> 50	activation energy Ea ([2]; in t-BuPh): 121.1 kJ/mol; activation energy Ea ([2]; in water/n-PrOH 1/1 v/v): 118.5 kJ/mol; IC50 [1, 4]: 50 µM
CC(C)[C@@H](NC(=O)[C@H](N)Cc1ccccc1)C(=O)N[C@H](Cc1ccccc1)C(=O)OCc1ccccc1 [P8D] (H-[dF]-[dV]-[dF]-OBn)	> 50	–	> 50	–
CC(ON(C(C)(C)C)C(C)(C)C)c1ccc(NC(=O)[C@@H](Cc2ccccc2)NC(=O)[C@H](NC(=O)[C@H](N)Cc2ccccc2)C(C)C)cc1 (stereo partly drawn) [AW230]	–	–	9 ± 1.2	IC50 [1, 4]: 3.73 ± 0.26 µM
CC(C)[C@H](NC(=O)[C@H](Cc1ccccc1)NC(=O)CCC(=O)O)C(=O)N[C@@H](Cc1ccccc1)C(=O)O [P10L] (Suc-Phe-Val-Phe-OH)	> 50	> 50	–	–
C[C@H]1[C@@H](O)O[C@@H]2O[C@@]3(C)CC[C@H]4[C@H](C)CC[C@@H]1[C@@]24OO3 [DHA, dihydroartemisinin, reference compound]	–	–	–	effect on parasitemia and parasite cell cycle (F32-ART parasites): high parasitemia decrease
CC(C)[C@@H](NC(=O)[C@@H](Cc1ccccc1)NC(=O)OC(C)(C)C)C(=O)N[C@H](Cc1ccccc1)C(=O)O [P7D] (Boc-[dF]-[dV]-[dF]-OH)	> 10	–	> 50	–
CC(C)[C@H](NC(=O)[C@H](Cc1ccccc1)NC(=O)CCC(=O)OCc1ccccc1)C(=O)N[C@@H](Cc1ccccc1)C(=O)OCc1ccccc1 [P9L, N-(Bn)succinyl-L-Phe-L-Val-L-Phe–OBn]	> 50	–	> 50	–
CC(C)[C@@H](NC(=O)[C@H](N)Cc1ccccc1)C(=O)N[C@H](Cc1ccccc1)C(=O)O [P11D] (H-[dF]-[dV]-[dF]-OH; N-terminus and C-terminus assumed)	–	–	> 50	–
O=C1C(O)=C([C@H]2CC[C@H](c3ccc(Cl)cc3)CC2)C(=O)c2ccccc21 [Atovaquone, reference compound]	–	–	–	delay in recrudescence time between DHA 6 h/DHA 48 h and DHA 6 h/(DHA + molecule) 48 h [3]: 11 days
CCc1ccc(NC(=O)[C@@H](Cc2ccccc2)NC(=O)[C@H](NC(=O)[C@@H](Cc2ccccc2)NC(=O)OC(C)(C)C)C(C)C)cc1 [P21D]	> 50	> 50	–	–
CC(C)[C@H](NC(=O)[C@@H](N)Cc1ccccc1)C(=O)N[C@@H](Cc1ccccc1)C(=O)O [P11L] (H-Phe-Val-Phe-OH)	> 10	> 50	–	–
CC(C)[C@H](NC(=O)[C@@H](N)Cc1ccccc1)C(=O)N[C@@H](Cc1ccccc1)C(=O)OCc1ccccc1 [P8L] (H-Phe-Val-Phe-OBn)	> 50	–	> 50	–
CCc1ccc(NC(=O)[C@H](Cc2ccccc2)NC(=O)[C@@H](NC(=O)[C@H](Cc2ccccc2)NC(=O)OC(C)(C)C)C(C)C)cc1 [P21L]	> 50	> 50	–	–
CCc1ccc(NC(=O)[C@H](Cc2ccccc2)NC(=O)[C@@H](NC(=O)[C@H](Cc2ccccc2)NC(=O)CCC(=O)OCc2ccccc2)C(C)C)cc1 [P23L]	> 10	> 50	–	–
